In US20130190370A1, “Novel Tetrahydronaphalene Antagonists to the Thromboxane A2 (TP) Receptor” (The Trustees of the University of Pennsylvania, priority 2010, published 2013):

Tests used:
[1] = Pro-drug study: plasma levels of compound and carboxylic acid hydrolysis product (51280) by LC-MS/MS; format: in vivo; conditions: female mice, 5 mg/kg, 1 h after injection
Experimental: Ester and amide examples can serve as pro-drugs to release the potent carboxylic acid TP receptor antagonist CNDR-51280. Compounds in were administered at 5 mg/kg to female mice, and levels of the compound and the carboxylic acid hydrolysis product (51280) were evaluated by LC-MS/MS 1 h after injection (Table 3).

mouse TP receptor [2] = molecular target: T1, mouse TP receptor (Mus musculus, UniProt P30987); assay: IP1 functional HTRF assay, mouse TP receptor; format: cell-based; conditions: I-BOP stimulated IP1
T1 construct: expressed in transfected cells
T1 sequence (P30987 1-341): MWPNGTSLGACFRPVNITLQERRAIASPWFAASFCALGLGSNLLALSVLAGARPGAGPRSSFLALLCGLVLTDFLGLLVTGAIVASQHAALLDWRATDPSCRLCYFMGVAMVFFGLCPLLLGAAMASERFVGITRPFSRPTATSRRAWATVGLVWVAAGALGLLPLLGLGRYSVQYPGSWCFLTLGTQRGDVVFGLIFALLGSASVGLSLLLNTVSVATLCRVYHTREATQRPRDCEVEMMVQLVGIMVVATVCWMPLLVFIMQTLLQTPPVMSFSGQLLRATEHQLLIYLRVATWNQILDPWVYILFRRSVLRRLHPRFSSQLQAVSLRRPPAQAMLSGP
Experimental: (§1) Functional activity of the TP receptor was measured by homogenous time-resolved fluorescence (HTRF) (IP-One Tb, Cisbio, Bedford, Mass., USA). QBI-HEK 293A (MP Biomedicals, Solon, Ohio, USA) cells were transfected with human TP receptor or mouse TP receptor cDNAs cloned into the pcDNA5/TO vector (Invitrogen, Carlsbad, Calif., USA), and stable transformants were selected. Cells were plated at 200,000 cells/mL in DMEM containing 4.5 g/L glucose (Invitrogen, Carlsbad, Calif., USA), 10% fetal bovine serum, L-glutamine, and penicillin/streptomycin into 384-well plates (Grenier Bio-One, Monroe, N.C., USA), followed by incubation for 16 hours at 37° C. with 5% CO2. Culture media was removed and cells were then incubated for 15 min at 37° C. with 5% CO2 in 10 mM Hepes, 1 mM CaCl2, 0.4 mM MgCl2, 4.2 mM KCl, 146 mM NaCl, 5.5 mM glucose, 50 mM LiCl, pH 7.4 (stimulation buffer) containing varying concentrations of test antagonist. I-BOP ([1S-[1α,2α(Z),3β(1E,3S*),4α]]-7-[3-[3-hydroxy-4-(4-iodophenoxy)-1-butenyl]-7-oxabicyclo[2.2.1]hept-2-yl]-5-heptenoic acid) (Cayman Chemicals, Ann Arbor, Mich., USA) was added at a final concentration of 1.6 nM in stimulation buffer and incubated for 1 hour at 37° C. with 5% CO2. […] Plates were then read on a Spectramax M5 microplate reader (Molecular Devices, Sunnyvale, Calif., USA). Data are expressed as the ratio of 665 nm/620 nm fluorescence. […]

human TP receptor [3] = molecular target: T2, human TP receptor (Homo sapiens, UniProt P21731); assay: IP1 functional HTRF assay, human TP receptor; format: cell-based; conditions: I-BOP stimulated IP1
T2 construct: expressed in transfected cells
T2 sequence (P21731 1-343): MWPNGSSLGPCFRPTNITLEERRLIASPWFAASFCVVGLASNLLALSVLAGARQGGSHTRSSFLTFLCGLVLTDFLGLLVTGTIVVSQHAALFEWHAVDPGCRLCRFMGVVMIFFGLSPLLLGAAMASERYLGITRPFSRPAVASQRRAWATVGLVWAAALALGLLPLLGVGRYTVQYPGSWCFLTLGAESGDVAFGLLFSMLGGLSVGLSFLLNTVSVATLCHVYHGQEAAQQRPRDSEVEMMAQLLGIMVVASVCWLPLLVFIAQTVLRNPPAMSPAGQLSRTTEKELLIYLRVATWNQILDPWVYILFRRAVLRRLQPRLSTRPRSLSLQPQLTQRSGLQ
Experimental: as §1

mouse TP receptor [4] = molecular target: T1, mouse TP receptor; assay: Radioligand binding assay (3H-SQ29,548), mouse TP receptor; conditions: mTP receptor
Experimental: (§2) QBI-HEK 293A cells expressing human or mouse TxA2 (TP) receptor were grown as described previously and harvested in phosphate-buffered saline with 1 mM EDTA. The cell pellet was homogenized in a glass homogenizer in 20 mM Hepes, 1 mM EGTA, 0.5 mM DTT with protease inhibitor cocktail. The homogenate was initially centrifuged at 1000×g for 10 minutes at 8° C. to remove cell debris. The homogenate was then centrifuged in a Beckman L8-70M ultracentrifuge (Beckman-Coulter, Brea, Calif., USA) at 21,000 rpm for 30 minutes at 4° C., and the pellet was resuspended in 20 mM Hepes, 1 mM EGTA, 100 mM NaCl. Membrane preparations were normalized to protein level as determined with a BCA assay (ThermoFisher, Rockland, Ill.) and stored at −80° C.
(§3) Test antagonists were incubated at 10 different concentrations with 25 μg membrane and 25 nM ^3H-SQ29,548 (PerkinElmer, Waltham, Mass., USA) in 50 mM Tris, 4 mM CaCl2, 0.1% ascorbic acid pH 7.5 for 2 hours at 25° C. in 96-well polystyrene plates. Separation of bound from free radioligand was accomplished by rapid vacuum filtration onto 96-well GF/B filter plates (PerkinElmer, Waltham, Mass., USA). Filters were washed 8 times in 50 mM Tris, pH 6.9 and allowed to dry for 16 hours, Plates were sealed and filters dissolved in 50 μL Betaplate Scintillation fluid (PerkinElmer, Waltham, Mass., USA) and read on a scintillation counter. Data are presented as percent total binding as calculated by a minimum of 3 wells containing membrane and ^3H-SQ29,548 without antagonist.
(§4) Equilibrium dissociation constants (Kd), IC50, and Schild regression analyses was performed with GraphPad Prism software (GraphPad Software Inc., La Jolla, Calif., USA).
(§5) To facilitate the characterization of the new compounds, cell-based TP receptor functional assays were optimized. HEK293 clones have been produced that stably express the human (hTP) or mouse (mTP) TP receptor (a isoform), and treatment of these clones with I-BOP ([1S-[1α,2α(Z),3β(1E,3S*),4α]]-7-[3-[3-hydroxy-4-(4-iodophenoxy)-1-butenyl]-7-oxabicyclo[2.2.1]hept-2-yl]-5-heptenoic acid) results in increased production of inositol triphosphate (IP3) (Knezevic, et al., 1993, Blood 82:A156; Shenker, et al., 1991, J Biol Chem 266:9309-9313; Huang, et al., 2004, Cell Signal 16:521-533) which can be quantified by measuring the breakdown product, inositol monophosphates (IP1), using a commercial time-resolved fluorescence assay. […] A radioligand binding assay was also developed to allow for the determination of binding affinities of compounds at the hTP and mTP receptors.

human TP receptor [5] = molecular target: T2, human TP receptor; assay: Radioligand binding assay (3H-SQ29,548), human TP receptor; conditions: hTP receptor
Experimental: as §2, §3, §4, §5

SMILES: O=C(O)CCc1cccc2c1CCC(NS(=O)(=O)c1ccc(Cl)cc1)C2 (centres unmarked) [Compound 51280, 3-(6-(4-Chloroplienyistilfonamido)-5,6,7,8-tetrahydronaplithalen-1-yl)propanaic acid]
- Plasma (compound) [1]: 10376 (+/− 3480) nM
- antagonist activity (mouse TP receptor [2]): potent antagonist
- antagonist activity (human TP receptor [3]): potent antagonist
- affinity for TP receptor (mouse TP receptor [4]): high affinity
- affinity for TP receptor (human TP receptor [5]): high affinity
